# From patent US20240307351A1, “AGENT FOR ANTI-AGING OR FOR CELLULAR REJUVENATION” (TOHOKU UNIVERSITY, priority 2022, published 2024)
# Legend:
# [1] = tested on: various SIRTs (SIRT1, SIRT2, SIRT3, SIRT5, SIRT6, and SIRT7); assay: Expression levels of various SIRTs in HEI-OC1 cells by Western blotting; format: cell-based, mouse; details: HEI-OC1 cell line, 1, 3, 10 or 30 μM, 24 hours, compared with absence of MA5 (0.1% DMSO)
# Procedure: HEI-OC1 cells (mouse inner ear cell line) at 1×10^6 cell/dish were seeded and cultured in a dish containing 10 mL of a culture solution (low-glucose-containing DMEM medium (glucose concentration of 1.0 g/dL) to which 10 wt. % of FBS was added). After one day, 0.1% DMSO as a solvent of the compound or Compound #5 at various concentrations (1 μM, 3 μM, 10 μM, or 30 μM) was added, and the mixture was cultured for 24 hours ([Compound #5 addition group]). After completion of culture, the cells were collected, disrupted by a typical method, and the expression levels of various SIRTs (SIRT1, SIRT2, SIRT3, SIRT5, SIRT6, and SIRT7) in the cells were analyzed by Western blotting (see FIGS. 1-1 and 1-2).
# [2] = tested on: NDUFS4 homozygous knockout mice (Ndufs4−/−mice); assay: Electron microscopic observation of liver tissue (fatty liver) of Ndufs4−/− mice; format: in vivo; details: oral, 0.1 kg/day per mg of mouse weight, 24 days, vs Control 1 group (water)
# Source text: Compound #5 was orally administered to NDUFS4 homozygous knockout mice (Ndufs4−/−mice) (4 weeks old) at a dose of 0.1 kg/day per mg of mouse weight for 24 days ([Compound #5 administration group]).
# In addition, water was orally administered to NDUFS4 homozygous knockout mice (Ndufs4−/−mice) for 24 days ([DMSO group; Control 1 group]). Further, water was orally administered to wild-type mice for 24 days ([Control 2 group]).
# [3] = tested on: muscle cells of young mice; assay: RNA-Seq, pathway and ChIP-Atlas analysis of muscle cells of young mice; format: in vivo, mouse; details: oral, 50 mg/kg/day, 2 months
# Procedure: (§1) Water-suspended Compound #5 was orally administered to C57BL6 mice (12 weeks old) at a dose of 50 mg/kg/day per kg of mouse weight for 2 months ([MA5 addition group], n=5). After 2 months of oral administration, the mice were 20 weeks old.
# (§2) In addition, water was orally administered to C57BL6 mice (12 weeks old) for 2 months ([Vehicle group], n=5). After 2 months of oral administration, the mice were 20 weeks old.
# RNA sequencing (RNA-Seq) analysis was performed on the muscle cells of the young mice in [MA5 addition group] and [Vehicle group] to identify genes whose expression levels changed (increased or decreased) in [MA5 addition group] and [Vehicle group] compared to the muscle cells of young mice before administration. The results are illustrated in FIG. 16.
# Based on the names of genes whose expression levels increased or decreased in the young mice of [MA5 addition group] as compared with the young mice of [Vehicle group] in the RNA sequence (RNA-Seq) analysis, pathway analysis of genes whose expression levels varied in [MA5 addition group] was performed. The results are illustrated in FIG. 17. […]
# [4] = tested on: liver cells of young mice; assay: RNA-Seq and ChIP-Atlas analysis of liver cells of young mice; format: in vivo, mouse; details: oral, 50 mg/kg/day, 2 months, Table 3
# Procedure: as §1, §2
# RNA sequencing (RNA-Seq) analysis was performed on the liver cells of young mice in [MA5 addition group] and [Vehicle group] to identify genes whose expression levels changed (increased or decreased) in [MA5 addition group] as compared with [Vehicle group]. Using the results of these gene names, integrated analysis with ChIP-Atlas was performed to investigate transcription factors possibly related to these genes.
# [5] = tested on: cochlear cells of the inner ear of wild-type mice; assay: RNA-Seq and ChIP-Atlas analysis of cochlear cells of wild-type mice; format: in vivo, mouse; details: wild-type C57BL6 mice, oral, 50 mg/kg/day, 2 weeks, Table 6
# Procedure: Water-suspended Compound #5 was orally administered to C57BL6 mice (6 weeks old) at a dose of 50 mg/kg/day per kg of mouse weight for 2 weeks ([MA5 addition group], n=5).
# In addition, water was orally administered to C57BL6 mice (6 weeks old) for […] ([Vehicle group], n=5).
# RNA sequence (RNA-Seq) analysis was performed on cochlear cells of the inner ear of wild-type mice of [MA5 addition group] and [Vehicle group] described above, and genes whose expression levels changed (increased or decreased) in [MA5 addition group] as compared with [Vehicle group] were identified. Using the results of these gene names, integrated analysis with ChIP-Atlas was performed to investigate transcription factors possibly related to these genes.
# [6] = tested on: genomic DNA of the liver cells; assay: Degree of methylation of genomic DNA of liver cells by the bisulfite method; format: in vivo, mouse; details: oral, 50 mg/kg/day, 2 months
# Procedure: Water-suspended Compound #5 was orally administered to C57BL6 mice (12 weeks old) at a dose of 50 mg/kg/day per kg of mouse weight for 2 months ([MA5 high dose addition group], n=5). The degree of methylation of the genomic DNA of the liver cells of the young mice was measured by the bisulfite method.
# Water-suspended Compound #5 was orally administered to C57BL6 mice (92 weeks old) at a dose of 50 mg/kg/day per kg of mouse weight for 2 months ([MA5 addition group], n=5). The degree of methylation of the genomic DNA of the liver cells of the aged mice was measured by the bisulfite method. In Table 9 and Table 10, “Count” represents how many genes were related among genes related to the pathway. For example, in a pathway involving 20 genes, when there are three genes whose expression levels have been varied by administration of Compound #5, Count is 3, and “ %” thereof is a numerical value calculated by (3/20)×100.
# “P-value” represents the p-value of the between-group comparison of pathways, and “Benjamini” represents the p-value calculated using the linear step-up method of Benjamini and Hochberg (1995) (see, for example, https://david.ncifcrf.gov/helps/functional_annotation.html for calculation method).
# [7] = Plasma metabolite analysis by CE-TOFMS in α-Klotho gene-deficient mice; format: in vivo; details: oral, 10 mg/kg mouse weight/day, 28 to 60 days old
# Procedure: Water-suspended Compound #5 was orally administered to α-Klotho gene-deficient mice (28 days old) at a dose of 10 mg/kg mouse weight/day until 60 days old (Klotho homo KO mouse administration group, n=2).
# In addition, water was orally administered to wild-type mice (28 days old) and α-Klotho gene-deficient mice (28 days old) until 60 days old (n=2 for each of the wild-type non-administrated group and the Klotho homo KO mouse non-administrated group).
# Plasma was prepared from each 60-day-old mouse, and the effect of administration of Compound #5 on plasma metabolites was subjected to target analysis (comprehensive analysis) by CE-TOFMS (manufactured by Human Metabolome Technologies, Inc.).
smiles,measurement,setting,value
"O=C(CC(C(=O)O)c1c[nH]c2ccccc12)c1ccc(F)cc1F (stereo not drawn) [Compound #5, 4-(2,4-difluorophenyl)-2-(1H-indole-3-yl)-4-oxo-butanoic acid]",expression levels of various SIRTs in the cells,[1],increased
same,fat deposition in hepatocytes (fatty liver),[2],clear reduction
same,"expression levels of genes related to differentiation, development, and the like of muscles such as Tbx1 Gene",[3],increased
same,transcription factors related to the genes whose expression increased (ChIP-Atlas),[3]; Table 2,SUZ^12 and EZH2
same,transcription factors related to genes whose expression increased (ChIP-Atlas),[4],"MYC, OCT4, SOX2, and NANOG related to reprogramming factors in the production of iPS cells, RXR (retinoid X receptor) and PPARA (peroxisome proliferator-activated receptor a) related to SIRT, and TRIM28"
same,transcription factors related to the genes whose expression increased (ChIP-Atlas),[5],SUZ^12 and EZH2
same,methylation of insulin resistance pathway,[6]; aged mice (92 weeks old),inhibited
same,methylation of insulin signaling pathway,[6]; aged mice (92 weeks old),inhibited
same,methylation of Insulin secretion pathway,[6]; young mice (12 weeks old),inhibited
same,methylation of Signaling pathways regulating pluripotency of stem cells,[6]; young mice (12 weeks old),inhibited
same,methylation of Wnt signaling pathway,[6]; young mice (12 weeks old),inhibited
same,spermidine in plasma,[7],increased
